We go through 3 molecules from patent publication US7767194B2, “Optical diagnostic and therapeutic agents and compositions” (Mallinckrodt Inc., priority 2000, dated 2010).

Data set [1] deals with Rat pancreatic acinar carcinoma expressing the SST-2 receptor (CA20948). In words: Non-invasive in vivo fluorescence imaging of rat pancreatic acinar carcinoma (CA20948). From the text:
(§1) A non-invasive in vivo fluorescence imaging apparatus was employed to assess the efficacy of contrast agents developed for tumor detection in animal models. A LaserMax Inc. laser diode of nominal wavelength 780 nm and nominal power of 40 mW was used. The detector was a Princeton Instruments model RTE/CCD-1317-K/2 CCD camera with a Rodenstock 10 mm F2 lens (stock #542.032.002.20) attached. An 830 nm interference […] (CVI Laser Corp., part # F10-830-4-2) was mounted in front of the CCD input lens such that only emitted fluorescent light from the contrast agent was imaged. Typically, an image of the animal was taken pre-injection of contrast agent. This image was subsequently subtracted (pixel by pixel) from the post injection images. However, the background subtraction was […] done once the animal had been removed from the sample area and returned at a later time for images taken several hours post injection.
DSL 6A tumors were induced in male Lewis rats in the left flank area by the introduction of material from a solid (donor) implant and the tumors were palpable in approximately 14 days. The animals were anesthetized with xylazine; ketamine; acepromazine 1.5:1.5:0.5 at 0.8 mL/kg via intramuscular injection. The area of the tumor (left flank) was shaved to expose tumor and surrounding surface area. A 21 gauge butterfly equipped with a stopcock and two syringes containing heparinized saline was placed into the later tail vein of the rat. Patency of the vein was checked prior to administration of the ICG via the butterfly apparatus. Each animal received […] of a 0.42 mg/mL solution of ICG in water.
The imaging apparatus and the procedure used are described in Example 12. Rat pancreatic acinar carcinoma expressing the SST-2 receptor (CA20948) was induced by solid implant technique in the left flank area, and palpable masses were detected nine days post implant. The images obtained at 2 and 30 minutes post injection are shown in FIG. 7E-F. FIGS. 7E-F are images of a rat with an induced pancreatic acinar carcinoma (CA20948) expressing the SST-2 receptor imaged at two minutes (FIG. 7E) and 30 minutes (FIG. 7F) post injection.
The imaging apparatus and the procedure used are described in Example 12 except that each animal received 500 μl of a 1.0 mg/mL solution of Cytate 1 solution of 25% dimethylsulfoxide in water.
Rat pancreatic acinar carcinoma expressing the SST-2 receptor (CA20948) were induced by solid implant technique in the left flank area, and palpable masses were detected 24 days post implant. Images were obtained at various times post injection.
Cytate 1 was evaluated in the CA20948 Lewis rat model. […] At 27 hours post injection, the animal was again imaged (FIG. 9B).

The nature of data set [2]: Imaging of individual organs removed from CA20948 tumor-bearing rat. It is filed as in vivo. The procedure: Individual organs were removed at about 24 hours post Cytate 1 administration and imaged.
A short description of data set [3]: Monitoring of the blood clearance profile of peptide-dye conjugates. It counts as in vivo. The conditions noted are these: rat ear, bolus injection in lateral tail vein, 830 nm after excitation at 780 nm. An excerpt: A laser of appropriate wavelength for excitation of the dye chromophore was directed into one end of a fiber optic bundle and the other end was positioned a few millimeters from the ear of a rat. A second fiber optic bundle was also positioned near the same ear to detect the emitted fluorescent light and the other end was directed into the optics and electronics for data collection. An interference filter (IF) in the collection optics train was used to select emitted fluorescent light of the appropriate wavelength for the dye chromophore.
After the animals had achieved the desired plane of anesthesia, a 21 gauge butterfly with 12″ tubing was placed in the lateral tail vein of each animal and flushed with heparinized saline. The animals were placed onto a heating pad and kept warm throughout the entire study. The lobe of the left ear was affixed to a glass microscope slide to reduce movement and vibration.
Incident laser light delivered from the fiber optic was centered on the affixed ear. Data acquisition was then initiated, and a background reading of fluorescence was obtained prior to administration of the test agent. […] This procedure was repeated with several dye-peptide conjugates in normal and tumor bearing rats. […] The data were analyzed using a standard sigma plot software program for a one compartment model.

In the next data set the test system is DSL 6A tumors. In words: Non-invasive in vivo fluorescence imaging of pancreatic ductal adenocarcinoma (DSL 6A). Also on record: species or system rat.
Excerpt: as §1
DSL 6A tumors were induced in male Lewis rats in the left flank area by the introduction of material from a solid (donor) implant and the tumors were palpable in approximately 14 days. The animals were anesthetized with xylazine; ketamine; acepromazine 1.5:1.5:0.5 at 0.8 mL/kg via intramuscular injection. The area of the tumor (left flank) was shaved to expose tumor and surrounding surface area. […]

Data set [4] deals with Prostatic carcinoma tumor (Dunning R3327-H). The experiment in a line: Non-invasive in vivo fluorescence imaging of prostatic carcinoma (R3327-H). Also noted: species or system rat.
Where [5] appears, read: CA20948 tumor, 45 minutes post injection.
The mark [6] stands for this setting: organ removed about 24 hours post administration.
[7] abbreviates: tissue removed about 24 hours post administration.

Consider `C[C@@H](O)[C@H](NC(=O)[C@@H]1CSSC[C@H](NC(=O)[C@@H](Cc2ccccc2)NC(=O)CCN2C(=CC=CC=CC=CC3=[N+](CCC(=O)O)c4ccc5ccccc5c4C3(C)C)C(C)(C)c3c2ccc2ccccc32)C(=O)N[C@@H](Cc2ccc(O)cc2)C(=O)N[C@H](Cc2c[nH]c3ccccc23)C(=O)N[C@@H](CCCCN)C(=O)N[C@@H]([C@@H](C)O)C(=O)N1)C(=O)O` [Cytate 1, monoOctreotate-Bismethylcarboxymethylindocyanine dye], for which the “localization of dye in the tumor” value in data set [1] (CA20948 Lewis rat model, 45 minutes post injection) was “localization of this dye was observed in the tumor”. Further, the tumor visualization entry in data set [1] (CA20948 Lewis rat model, 27 hours post injection) was “easily observed”. Besides, the “time course of uptake into the tumor” value in data set [1] (CA20948 tumor, 500 μl of 1.0 mg/mL in 25% dimethylsulfoxide in water) is “seen at two minutes but was not maximal until about five minutes”. Moreover, in data set [1] (setting [5]), the “uptake (dye fluorescence) in tumor at 45 minutes” value is “still quite intense”. Moreover, the “persistence of dye fluorescence in the tumor” value in data set [1] (CA20948 tumor, post-injection) was “remained intense in the tumor for several hours”. Besides, in data set [2] (setting [6]), the uptake in adrenals result was “high uptake”, the uptake in heart result was “significantly lower uptake”, the uptake in liver result is recorded as “significantly lower uptake” and the uptake in pancreas entry is recorded as “high uptake”. Also, the uptake in spleen entry in data set [2] (setting [6]) was “significantly lower uptake”. Further, in data set [2] (setting [7]), the uptake in muscle result is listed as “significantly lower uptake” and the “uptake in tumor tissue” value was “high uptake”. Also, in data set [3], the “fluorescence signal in blood after injection (rise)” value is “rapidly increased to a peak value” and the “fluorescence signal in blood over time (clearance)” value is on record as “decayed as a function of time”.
With `C[C@@H](O)[C@H](NC(=O)[C@@H]1CSSC[C@H](NC(=O)[C@@H](Cc2ccccc2)NC(=O)CCN2C(=CC=CC=CC=CC3=[N+](CCC(=O)N[C@H](Cc4ccccc4)C(=O)N[C@H]4CSSC[C@@H](C(=O)N[C@H](C(=O)O)[C@@H](C)O)NC(=O)[C@H]([C@@H](C)O)NC(=O)[C@H](CCCCN)NC(=O)[C@@H](Cc5c[nH]c6ccccc56)NC(=O)[C@H](Cc5ccc(O)cc5)NC4=O)c4ccc5ccccc5c4C3(C)C)C(C)(C)c3c2ccc2ccccc32)C(=O)N[C@@H](Cc2ccc(O)cc2)C(=O)N[C@H](Cc2c[nH]c3ccccc23)C(=O)N[C@@H](CCCCN)C(=O)N[C@@H]([C@@H](C)O)C(=O)N1)C(=O)O` [Cytate 2, bisOctreotate-Bismethylcarboxymethylindocyanine dye], in data set [3], the “fluorescence signal in blood after injection (rise)” value is recorded as “rapidly increased to a peak value” and the “fluorescence signal in blood over time (clearance)” value is given as “decayed as a function of time”.
Consider `CC1(C)C(/C=C/C=C/C=C/C=C2\N(CCCCS(=O)(=O)O)c3ccc4ccccc4c3C2(C)C)=[N+](CCCCS(=O)(=O)[O-])c2ccc3ccccc3c21` [ICG, indocyanine green], for which the “perfusion of the agent into the tumor” value in the data set with DSL 6A tumors (DSL 6/A (pancreatic) tumor line, CCD camera) is “slow perfusion of the agent over time into the tumor”; in data set [4] (Dunning R3327H (prostate) tumor line, CCD camera) it was “slow perfusion of the agent over time into the tumor”; in data set [1] (CA20948 (pancreatic) tumor line, CCD camera), “only a slight but transient perfusion that was absent after only 30 minutes post injection”. Moreover, the “dye intensity in the tumor” value in the data set on DSL 6A tumors (DSL 6A tumor, male Lewis rats, 30 minutes post-ICG injection (vs two minutes), tail vein bolus 0.5 ml aqueous solution) was “considerably diminished”; in data set [4] (R3327-H tumor, Copenhagen rats, 30 minutes post-ICG injection (vs two minutes)), “considerably diminished”; in data set [1] (CA20948 tumor, 30 minutes post-ICG injection (vs two minutes)), “considerably diminished and almost absent”. Also, the “uptake (dye fluorescence) in tumor at 45 minutes” value in data set [1] (setting [5]) is “mostly cleared”.
